Measured values published in article PMC8145596, “Novel Chemically Modified Curcumin (CMC) Derivatives Inhibit Tyrosinase Activity and Melanin Synthesis in B16F10 Mouse Melanoma Cells” (Biomolecules, 2021).
“Also recorded” adds a separate entry of the source.

Assays:
mushroom tyrosinase [1] = molecular target: T1, mushroom tyrosinase (Agaricus bisporus, UniProt C7FF04); assay: Diphenolase activity assay of mushroom tyrosinase (L-DOPA substrate); type: biochemical; conditions: for mechanism of inhibition of diphenolase activity: L-B and Dixon plots, nonlinear curve fitting; for Ki: read-out: apparent Ki, diphenolase (L-DOPA); for diphenolase inhibitory potency: compared with CMC2.24
Description: The direct effects of the compounds on the diphenolase activity of tyrosinase were tested using mushroom tyrosinase with a fixed concentration of L-DOPA as the substrate. Briefly, 80 µL of each compound prepared at different concentrations in 50 mM sodium phosphate buffer (pH 6.8) was added to wells of a 96-well microplate, followed by 100 µL of freshly prepared substrate solution (3 mM L-DOPA in buffer). The reaction was initiated by adding 20 µL of mushroom tyrosinase (final concentration of enzyme in wells was 3.5 µg/mL). The production of Dopachrome was monitored by measuring the absorbance at 475 nm every 30 s for a period of 30 min at 30 °C, using a microplate reader in the kinetic mode. The slopes of the plots of absorbance vs. time were calculated for comparison of enzyme activity in the presence of each of the inhibitors to that of the inhibitor-free control.
(§1) In order to study the mechanism of inhibition of tyrosinase activity by the compounds as a function of substrate concentration, we conducted a kinetic study of monophenolase and diphenolase activities at multiple concentrations of substrates. For the monophenolase activity assay, the final concentration of enzyme was 12.5 µg/mL and the final substrate concentrations were 0.125, 0.25, 0.5 and 1 mM, while for diphenolase activity assay, the final concentration of enzyme was 3.5 µg/mL and the final substrate concentrations ranged from 0.1–3 mM. The slopes from the linear range of the progress curves of absorbance at 475 nm vs. time were recorded as apparent velocities and the reciprocal values, 1/v, were plotted as functions of the reciprocal values of the substrate concentrations at different fixed inhibitor concentrations according to the method of Lineweaver and Burk (L-B). Dixon plots of the reciprocal velocity values, (1/v), as functions of the inhibitor concentrations at different fixed substrate concentrations were also constructed to investigate further the apparent mode of inhibition by the compounds.
(§2) We have also analyzed the inhibition data using nonlinear curve fitting algorithms which are more robust than the linearized L-B and Dixon plotting methods that can weigh the data from evenly spaced concentrations disproportionately. The inhibition constants were calculated by non-linear least squares curve fitting using a modified Levenberg-Marquardt algorithm and data was fitted to models of pure competitive, noncompetitive, and uncompetitive inhibition using Enzfitter software (version 2.0, Biosoft, Cambridge, UK). This analysis was undertaken to assess the apparent potency of compounds, PC, CMC2.24, and CMC2.23 for each putative mode of inhibition.

[2] = DPPH radical scavenging antioxidant assay; conditions: 60 μM DPPH, 30 min
Description: Melanin production catalyzed by the tyrosinase pathway is often associated with higher levels of oxidative stress and reactive oxygen species (ROS) generation. […] DPPH (2,2-Diphenyl-1-picrylhydrazyl) is a stable free radical which changes color from purple to yellow upon reduction by antioxidant compounds. Briefly, 180 µL of DPPH reagent that was prepared in methanol was combined with 20 µL of different concentrations of the compounds in a 96-well plate to give a final DPPH concentration of 60 μM in each well. A control group consisted of DPPH only while ascorbic acid (AA) at 20 µM was used as a positive control. The plate was covered and incubated for 30 min, after which the absorbance was read at 517 nm and the DPPH radical scavenging activity was reported as % of control.

mushroom tyrosinase [3] = molecular target: T1, mushroom tyrosinase; assay: Monophenolase activity assay of mushroom tyrosinase (L-Tyrosine substrate); type: biochemical; conditions: for mechanism of inhibition of monophenolase activity: L-B and Dixon plots, nonlinear curve fitting; for Ki: read-out: apparent Ki, monophenolase (L-TYR)
Description: The direct effects of the compounds on the monophenolase activity of tyrosinase were tested using mushroom tyrosinase enzyme with a fixed concentration of L-Tyrosine (L-Tyr) as the substrate. Briefly, 80 µL of compounds prepared at different concentrations in 50 mM sodium phosphate (pH 6.8) buffer were added to wells of a 96-well microplate followed by 100 µL of 2 mM L-Tyr solution. The reaction was initiated by adding 20 µL of mushroom tyrosinase (final concentration of enzyme in wells was 12.5 µg/mL) and was monitored by measuring absorbance at 475 nm every 30 s over a 30 min period, using a microplate reader (Versamax®) in the kinetic mode. The slopes of the plots of absorbance vs. time were calculated for comparison of enzyme activity in the presence of each of the inhibitors to that of an inhibitor-free control and reported as percentage of control activity (%).
as §1, §2

[4] = system: MITF protein in B16F10 cells; assay: MITF protein levels by cell-based ELISA; design: species or system mouse; conditions: 48 h
Description: Microphthalmia Transcription Factor (MITF), a known transcription factor for the tyrosinase gene, is a master regulator of melanogenesis and is activated by cyclic adenosine monophosphate (cAMP) signaling after UV irradiation, reflecting the role of cAMP as a key maturation factor in melanogenesis. The effects of PC and CMCs on MITF protein levels were assayed using a cell-based ELISA (Lifespan Biosciences, Seattle, WA, USA). Briefly, B16F10 cells were cultured in a 96-well plate at 1 × 10^4 cells/well for 24 h and then the medium was replaced with fresh medium containing compounds in 0.1% DMSO and cultures maintained for further 48 h. The cells were then fixed, and subsequent steps were conducted according to the manufacturers’ instructions. MITF protein levels were normalized to cell density by measuring the absorbance of crystal violet stain added to the fixed cells and the data was reported as % of control.

[5] = system: cAMP levels in B16F10 cells; assay: cAMP levels by competitive ELISA in B16F10 lysates; type: cell-based, mouse; conditions: for effect on cAMP levels: all concentrations tested
From the text: For assaying the levels of cAMP in B16F10 cellular lysates, a competitive ELISA (Enzo Life Sciences, Farmingdale, NY, USA) was used in non-acetylated format based on manufacturer instructions.

[6] = system: tyrosinase activity in B16F10 cells; assay: Recovery study of intracellular tyrosinase activity; type: cell-based, mouse
Description: In order to establish reversibility of tyrosinase inhibition by the CMCs, we conducted a recovery study for 48 h using the highest concentrations of the compounds that produced maximum inhibition of tyrosinase activity. B16F10 cells were plated in six-well plates at 3.5 × 10^4 cells/well and then compounds were added the next day. Tyrosinase activity was estimated after 48 h exposure in cellular lysates and another set of cultures were continued with fresh medium without the compounds to study the recovery of tyrosinase activity for 48 h. Results are expressed as % tyrosinase activity for both 48 h exposure and 48 h recovery.

[7] = fit to pure competitive inhibition
[8] = fit to pure noncompetitive inhibition
[9] = fit to pure uncompetitive inhibition
[10] = Mus musculus, B16-F10, 48 h, read-out: loss of tyrosinase activity after 48 h exposure (recovery study)

T1 sequence (C7FF04 1-392): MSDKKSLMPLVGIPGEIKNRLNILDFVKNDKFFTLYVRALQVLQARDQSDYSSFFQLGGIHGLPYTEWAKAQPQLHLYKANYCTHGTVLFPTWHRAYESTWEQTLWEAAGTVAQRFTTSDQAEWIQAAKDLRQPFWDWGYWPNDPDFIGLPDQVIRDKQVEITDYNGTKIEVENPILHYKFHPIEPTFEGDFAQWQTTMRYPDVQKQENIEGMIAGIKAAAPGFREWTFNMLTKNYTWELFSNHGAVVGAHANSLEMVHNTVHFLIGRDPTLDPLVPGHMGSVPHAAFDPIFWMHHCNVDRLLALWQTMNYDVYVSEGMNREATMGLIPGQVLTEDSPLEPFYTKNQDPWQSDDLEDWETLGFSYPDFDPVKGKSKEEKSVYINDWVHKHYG

1,7-bis(4-hydroxy-3-methoxyphenyl)-1,6-heptadien-3,5-dione [PC, reference compound]
inhibition of diphenolase activity (mushroom tyrosinase [1]; 5 μM compound): 14.47%
inhibition of diphenolase activity (mushroom tyrosinase [1]; 10 μM compound): 12.41%
inhibition of diphenolase activity (mushroom tyrosinase [1]; 20 μM compound): 14.19%
inhibition of diphenolase activity (mushroom tyrosinase [1]; 25 μM compound): 16.39%
mechanism of inhibition of diphenolase activity (mushroom tyrosinase [1]): not a pure competitive inhibitor; also recorded: mixed inhibitor
Vmax, diphenolase (L-DOPA) (mushroom tyrosinase [1]; competitive model fit): 44.67 mM/min
Ki (mushroom tyrosinase [1]; [7]): 45.1 µM
Ki (mushroom tyrosinase [1]; [8]): 164 µM
Ki (mushroom tyrosinase [1]; [9]): 129 µM
IC50 (mushroom tyrosinase [1]; fixed substrate concentration (L-DOPA), read-out: IC50 for Diphenolase inhibition): 299 ± 35.6 µM
Vmax, diphenolase (L-DOPA) (mushroom tyrosinase [1]; noncompetitive model fit): 48.28 mM/min
Vmax, diphenolase (L-DOPA) (mushroom tyrosinase [1]; uncompetitive model fit): 47.52 mM/min
DPPH radical scavenging activity [2]: high radical scavenging activity
inhibition of monophenolase activity (mushroom tyrosinase [3]; 10 μM compound): 14.41%
inhibition of monophenolase activity (mushroom tyrosinase [3]; 20 μM compound): 21.31%
inhibition of monophenolase activity (mushroom tyrosinase [3]; 25 μM compound): 22.10%
mechanism of inhibition of monophenolase activity (mushroom tyrosinase [3]): not a pure competitive inhibitor; also recorded: mixed inhibitor
Ki (mushroom tyrosinase [3]; [7]): 7.74 µM
Ki (mushroom tyrosinase [3]; [8]): 50.8 µM
Ki (mushroom tyrosinase [3]; [9]): 40.2 µM
IC50 (mushroom tyrosinase [3]; fixed substrate concentration (L-Tyr), read-out: IC50 for Monophenolase Inhibition): 67 ± 2.4 µM
attenuation of MITF protein levels ([4]; 10 µM): 28.62%
effect on cAMP levels ([5]; 48 h): trend for attenuation of cAMP levels, but the levels were not significant
inhibition ([6]; 10 µM, read-out: loss of tyrosinase activity after 48 h exposure (recovery study)): 89.5%
tyrosinase activity after 48 h recovery in compound-free medium ([6]; after exposure to 10 µM): did not differ from that of the control group

COC(=O)/C(C(=O)/C=C/c1ccc(O)c(OC)c1)=C(O)\C=C\c1ccc(O)c(OC)c1 [CMC2.5, 4-methoxycarbonyl curcumin]
diphenolase inhibitory potency (mushroom tyrosinase [1]): somewhat weaker inhibitory potency
DPPH radical scavenging activity [2]: significant radical scavenging activity
attenuation of MITF protein levels ([4]; 20 µM): 32.17%
attenuation of MITF protein levels ([4]; 25 µM): 35.4%
effect on cAMP levels ([5]; 48 h): did not affect cAMP levels at any concentration
inhibition at 20 µM [6, 10]: 42.5%
tyrosinase activity after 48 h recovery in compound-free medium ([6]; after exposure to 20 µM): 100%

COC(=O)/C(C(=O)/C=C/c1ccc(O)cc1)=C(O)\C=C\c1ccc(O)cc1 [CMC2.14]
diphenolase inhibitory potency (mushroom tyrosinase [1]): somewhat weaker inhibitory potency
DPPH radical scavenging activity [2]: did not demonstrate such activity
attenuation of MITF protein levels ([4]; 10 µM): 23.67%
effect on cAMP levels ([5]; 48 h): did not affect cAMP levels at any concentration
inhibition at 10 µM ([6]; Mus musculus, B16-F10, 48 h, 10 µM, read-out: loss of tyrosinase activity after 48 h exposure (recovery study)): 74.8%
tyrosinase activity after 48 h recovery in compound-free medium ([6]; after exposure to 10 µM): 100%

COc1cc(/C=C/C(=O)/C(C(=O)Nc2ccccc2)=C(O)/C=C/c2ccc(O)c(OC)c2)ccc1O [CMC2.23]
mechanism of inhibition of diphenolase activity (mushroom tyrosinase [1]): mixed mechanism of inhibition; also recorded: mixed, but predominantly competitive, mode of inhibition
diphenolase inhibitory potency (mushroom tyrosinase [1]): somewhat weaker inhibitory potency
Vmax, diphenolase (L-DOPA) (mushroom tyrosinase [1]; competitive model fit): 38.0 mM/min
Vmax, diphenolase (L-DOPA) (mushroom tyrosinase [1]; noncompetitive model fit): 39.05 mM/min
Vmax, diphenolase (L-DOPA) (mushroom tyrosinase [1]; uncompetitive model fit): 39.0 mM/min
DPPH radical scavenging activity [2]: significant radical scavenging activity
mechanism of inhibition of monophenolase activity (mushroom tyrosinase [3]): mixed, but predominantly competitive, mode of inhibition
attenuation of MITF protein levels ([4]; 10 µM): 32.27%
attenuation of MITF protein levels ([4]; 20 µM): 39.29%
attenuation of MITF protein levels ([4]; 25 µM): 37.22%
effect on cAMP levels ([5]; 48 h): did not affect cAMP levels at any concentration
inhibition at 20 µM [6, 10]: 52.7%

O=C(/C=C/c1ccc(O)cc1)/C(C(=O)Nc1ccccc1)=C(O)/C=C/c1ccc(O)cc1 [CMC2.24]
inhibition at 20 µM (mushroom tyrosinase [1]; 20 μM compound): 35.4%
inhibition at 25 µM (mushroom tyrosinase [1]; 25 μM compound): 38.2%
mechanism of inhibition of diphenolase activity (mushroom tyrosinase [1]): mixed mode of inhibition with a predominantly competitive mechanism
Vmax, diphenolase (L-DOPA) (mushroom tyrosinase [1]; competitive model fit): 36.0 mM/min
Vmax, diphenolase (L-DOPA) (mushroom tyrosinase [1]; noncompetitive model fit): 43.69 mM/min
Vmax, diphenolase (L-DOPA) (mushroom tyrosinase [1]; uncompetitive model fit): 41.99 mM/min
DPPH radical scavenging activity [2]: did not demonstrate such activity
inhibition at 5 µM (mushroom tyrosinase [3]; 5 μM compound, 1 mM L-Tyr final): 32.1%
inhibition at 10 µM (mushroom tyrosinase [3]; 10 μM compound): 34.7%
inhibition at 20 µM (mushroom tyrosinase [3]; 20 μM compound): 34.8%
inhibition at 25 µM (mushroom tyrosinase [3]; 25 μM compound): 37%
mechanism of inhibition of monophenolase activity (mushroom tyrosinase [3]): mixed mode of inhibition with a predominantly competitive mechanism
attenuation of MITF protein levels ([4]; 10 µM): 28.39%
attenuation of MITF protein levels ([4]; 20 µM): 31.79%
attenuation of MITF protein levels ([4]; 25 µM): 38.84%
attenuation of cAMP levels ([5]; 10 µM, 48 h (not significant)): 18.13%
attenuation of cAMP levels ([5]; 20 µM, 48 h): 38.18%
attenuation of cAMP levels ([5]; 25 µM, 48 h): 49.42%
inhibition at 20 µM [6, 10]: 73.3%
